Experimental data: patent publication US12594281B2, “Pharmaceutical dosage forms and methods of use” (EMALEX BIOSCIENCES, INC., priority 2024, dated 2026)
pKi: −log10 of the molar value. “And” between values parts separate entries of the source, which are not always exact repeats. Equal values may be shown once. Read-outs that look alike come from different tables or passages of the source.

How the values were obtained:
[1] = Phase 1 absorption, metabolism and excretion study of [14C]-ecopipam, single oral capsule dose; assay type: in vivo, human
From the text: Healthy subjects of any ethnic origin, aged between 35 and 55 years, inclusive, with a body mass index between 18.0 and 30.0 kg/m^2, inclusive, were selected for the study.

[2] = minipig, in vivo
From the text: (§2) The minipigs were 4-5 months old with a weight range within 10-15 kg at dosing. 3 male animals were used.
(§3) The concentration-time data were normalized for differences in dose.

[3] = biological target: ^3H-Spip binding site (Homo sapiens, UniProt P14416); settings: read-out: Ki ^3H-Spip; cited from earlier work
[4] = biological target: ^3H-23390 binding site (Homo sapiens, UniProt P21728); settings: read-out: Ki ^3H-23390; cited from earlier work
[5] = cited from earlier work
[6] = BCS solubility of Ecopipam HCl in pH buffers and bio-relevant media; assay type: physicochemical; settings: for solubility at 24 h: 37 °C, thermodynamic from solid; for Solubility / Purity at 24 hours in solubility test: 37° C.
Procedure: Solubility and final pH were the average of three parallel values. Purity was that of 24 hours. N/A means not performed.

[7] = Pharmacokinetics of sublingual vs oral tablet in minipigs
From the text: as §2, §3

[8] = Clinical drug-drug interaction study with mefenamic acid, specific UGT1A9 inhibitor (EBS-101-HV-102); assay type: in vivo, human; settings: mefenamic acid co-administered with oral ecopipam
From the text: (§1) The results from these studies are summarized in Table 7 below along with clinical recommendations.

[9] = Clinical drug-drug interaction study with rifampicin (EBS-101-HV-106); assay type: in vivo, human; settings: rifampicin co-administered with oral ecopipam
From the text: as §1

[10] = Clinical drug-drug interaction study with divalproate sodium, general UGT inhibitor (EBS-101-HV-102); assay type: in vivo, human; settings: divalproate sodium co-administered with oral ecopipam
From the text: as §1

[11] = Exposure-response analyses for safety (sedation, QTc); parameters: species or system human; settings: in vivo
From the text: Exposure-response analyses have been conducted for safety using sedation as an endpoint and cardiac safety (QTc).

[12] = Thorough QT study with C-QT analysis (EBS-101-HV-105); assay type: in vivo, human; settings: for 10 msec increase in ΔΔQTcF interval: primary model
Procedure: A randomized, double-blind, single dose, 4-way crossover thorough QT study was conducted with an open-label active control (EBS-101-HV-105, 2024).
The primary endpoint for this study was pre-specified to be based on C-QT analysis using the methods outlined in the white paper (Garnett C, 2018) (Garnett C B. P., 2018).

[13] = Phase 2 exposure-response for efficacy in Tourette's Disorder; assay type: in vivo, human; settings: logistic regression model
[14] = single oral dose 200 mg, fasted
[15] = minipig, dose-normalized, Zydis ODT 25 mg sublingual vs IR tablet 50 mg oral (ecopipam HCl)
[16] = after single oral dose of [14C]-ecopipam HCl
[17] = single dose of ecopipam 537.6 mg
[18] = single oral dose 200 mg [14C]-ecopipam HCl

^3H-23390 binding site, sequence (P21728 whole entry): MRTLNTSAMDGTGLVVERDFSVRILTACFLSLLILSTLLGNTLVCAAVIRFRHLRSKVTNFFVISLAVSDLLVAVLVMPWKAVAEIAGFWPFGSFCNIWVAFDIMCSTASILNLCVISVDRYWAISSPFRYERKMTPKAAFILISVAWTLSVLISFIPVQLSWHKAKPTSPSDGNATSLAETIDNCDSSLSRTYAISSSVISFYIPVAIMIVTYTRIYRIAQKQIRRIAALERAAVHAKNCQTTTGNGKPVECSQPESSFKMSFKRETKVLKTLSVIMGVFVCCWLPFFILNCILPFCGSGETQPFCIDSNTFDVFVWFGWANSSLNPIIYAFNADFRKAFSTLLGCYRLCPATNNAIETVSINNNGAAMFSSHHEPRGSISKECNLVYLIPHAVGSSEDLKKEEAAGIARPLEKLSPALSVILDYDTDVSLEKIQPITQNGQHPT
^3H-Spip binding site, sequence (P14416 whole entry): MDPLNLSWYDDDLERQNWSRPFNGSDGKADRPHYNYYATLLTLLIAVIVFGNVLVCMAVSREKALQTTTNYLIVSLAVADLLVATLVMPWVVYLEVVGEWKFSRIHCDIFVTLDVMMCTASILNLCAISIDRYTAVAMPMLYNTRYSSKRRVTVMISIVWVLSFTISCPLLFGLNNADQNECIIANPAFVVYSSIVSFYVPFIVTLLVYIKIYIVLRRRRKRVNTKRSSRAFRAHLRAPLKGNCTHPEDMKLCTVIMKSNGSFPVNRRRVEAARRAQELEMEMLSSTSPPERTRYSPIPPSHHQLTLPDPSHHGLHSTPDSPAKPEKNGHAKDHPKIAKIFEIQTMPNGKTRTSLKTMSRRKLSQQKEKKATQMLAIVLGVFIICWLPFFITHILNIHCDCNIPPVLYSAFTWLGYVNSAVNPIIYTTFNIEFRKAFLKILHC

Oc1cc2c(cc1Cl)CCNC1CCc3ccccc3C21 (stereo in doubt) [EBS-101-40853]
Geometric mean AUC ratio of plasma analyte to plasma total radioactivity ([1]; human, in vivo, po, 200 mg): 0.00178
Percentage of dose excreted in urine as analyte (geometric mean) ([1]; in vivo, po): 0.0645%
Share of radioactivity in plasma ([1]; in vivo, po): 0.26%
Geometric mean apparent terminal elimination half-life (t½) of analyte ([1]; in vivo, po, 200 mg): 25.6 h
Geometric mean renal clearance ([1]; in vivo, po, 200 mg): 1.53 L/h
Reduction of first pass metabolite concentration vs oral dosage form for oral systemic administration [2]: 48-55%

CN1CCc2cc(Cl)c(O)cc2C2c3ccccc3CC21 (stereo not drawn) [CH2/0/trans/Cl/OH]
pKi [3]: 5.59
pKi [4]: 8.00

CN1CCc2cc(Cl)c(O)cc2[C@H]2c3ccccc3CC[C@@H]21 [CH2/1/7b(R):7a(S)(−)/Cl/OH]
CAR (MED) ([5]; po): 30 (po)

CN1CCc2cc(Cl)c(O)cc2[C@@H]2c3ccccc3CC[C@H]21 [CH2/1/7b(S):7a(R)(+)/Cl/OH]
CAR (MED) ([5]; po): >30 (po)

COc1cc2c(cc1O)C1c3ccccc3CCC1N(C)CC2 (stereo not drawn) [CH2/1/cis/CH3O/OH]
pKi [3]: < 4.00
pKi [4]: 5.19

Cc1cc2c(cc1O)C1c3ccccc3CCC1N(C)CC2 (stereo not drawn) [CH2/1/trans/CH3/OH]
pKi [3]: 5.14
pKi [4]: 6.92

COc1cc2c(cc1O)C1c3ccccc3CCC1N(C)CC2 (stereo not drawn) [CH2/1/trans/CH3O/OH]
pKi [3]: 5.60
CAR (MED) ([5]; po): 30 (po);
CAR (MED) ([5]; sc): 0.3-1 (sc)
pKi [4]: 7.64

CN1CCc2cc(Cl)c(N)cc2C2c3ccccc3CCC21 (stereo not drawn) [CH2/1/trans/Cl/NH2]
pKi [3]: 5.38
CAR (MED) ([5]; po): 3 (po)
pKi [4]: 7.15

CN1CCc2cc(Cl)c(O)cc2C2c3ccccc3CCC21 (stereo not drawn) [CH2/1/trans/Cl/OH]
CAR (MED) ([5]; po): 30 (po);
CAR (MED) ([5]; sc): 0.3 (sc)

CN1CCc2ccc(O)cc2C2c3ccccc3CCC21 (stereo not drawn) [CH2/1/trans/H/OH]
pKi [3]: 5.46
pKi [4]: 7.52

COc1cc2c(cc1O)C1c3ccccc3CCCC1N(C)CC2 (stereo not drawn) [CH2/2/trans/CH3O/OH]
pKi [3]: < 4.00
CAR (MED) ([5]; sc): 10 (sc)
pKi [4]: 6.53

COc1cc2c(cc1O)CCN(C)C1CCCc3ccccc3C21 (stereo not drawn) [CH2/2/trans/HO/CH3O]
pKi [3]: < 4.00
CAR (MED) ([5]; sc): 10 (sc)
pKi [4]: 5.11

CN1CCc2cc(Cl)c(O)cc2[C@H]2c3ccccc3CC[C@@H]21.Cl [Ecopipam HCl]
solubility at 24 h ([6]; pH 1.2, simulated gastric fluid, pH 1.2 HCl buffer, 50 mM, up to 24 hours, final pH 1.23): 1560 µg/mL
solubility at 24 h ([6]; pH 1.61, fassgf or other biorelevant, FaSSGF, final pH 1.61): 2000 µg/mL
solubility at 24 h ([6]; pH 3, aqueous buffer, pH 3.0 citrate buffer, 100 mM, up to 24 hours, final pH 2.96): 9400 µg/mL
solubility at 24 h ([6]; pH 3, aqueous buffer, pH 3.0 phthalate buffer, 50 mM, up to 24 hours, final pH 3.05): 8 µg/mL
solubility at 24 h ([6]; pH 4.5, aqueous buffer, pH 4.5 acetate buffer, 50 mM, up to 24 hours, final pH 4.50): 3300 µg/mL
solubility at 24 h ([6]; pH 5.5, aqueous buffer, pH 5.5 acetate buffer, 50 mM, up to 24 hours, final pH 5.49): 230 µg/mL
solubility at 24 h ([6]; pH 5.84, fessif, FeSSIF-V2, final pH 5.84): 660 µg/mL
solubility at 24 h ([6]; pH 6.49, fassif, FaSSIF-V2, final pH 6.49): 50 µg/mL
solubility at 24 h ([6]; pH 6.8, aqueous buffer, pH 6.8 phosphate buffer, 50 mM, up to 24 hours, final pH 6.85): 20 µg/mL
Solubility ([6]; FaSSGF, final pH 1.61): 2020 µg/mL
XRPD (crystalline form after solubility test) ([6]; FaSSIF-V2): Changed
XRPD (crystalline form after solubility test) ([6]; FeSSIF-V2): Changed
Time stable in bio-relevant media ([6]; bio-relevant media at 37° C., degradation occurred from 3 hours): up to 1 hour
Purity at 24 hours in solubility test ([6]; pH 1.2 HCl buffer, 50 mM): 99.87%
XRPD (crystalline form after solubility test) ([6]; pH 3.0 citrate buffer, 100 mM): did not exhibit a change in crystallinity
Purity at 24 hours in solubility test ([6]; pH 3.0 citrate buffer, 100 mM): 99.87%
Solubility ([6]; pH 3.0 citrate buffer, 100 mM, up to 24 hours, final pH 2.96): 9420 µg/mL
XRPD (crystalline form after solubility test) ([6]; pH 3.0 phthalate buffer, 50 mM): Changed
XRPD (crystalline form after solubility test) ([6]; pH 4.5 acetate buffer, 50 mM): Changed
Purity at 24 hours in solubility test ([6]; pH 4.5 acetate buffer, 50 mM): 99.85%
XRPD (crystalline form after solubility test) ([6]; pH 5.5 acetate buffer, 50 mM): Changed
Purity at 24 hours in solubility test ([6]; pH 5.5 acetate buffer, 50 mM): 100.00%
XRPD (crystalline form after solubility test) ([6]; pH 6.8 phosphate buffer, 50 mM): Changed
Purity at 24 hours in solubility test ([6]; pH 6.8 phosphate buffer, 50 mM): 100.00%

CN1CCc2ccc(O)cc2C2c3ccccc3OCC21 (stereo not drawn) [O/1/trans/H/OH]
pKi [4]: 6.92

CN1CCc2cc(Cl)c(O)cc2[C@H]2c3ccccc3CC[C@@H]21.Cl [[^14C]-ecopipam HCl]
Median time of the maximum observed concentration of total radioactivity in whole blood ([1]; single oral dose 200 mg): 2.00 hours postdose
Arithmetic mean radioactivity recovered in feces [1, 14]: 8.27%
Arithmetic mean radioactivity recovered in urine [1, 14]: 83.3%

CN1CCc2cc(Cl)c(O[C@@H]3O[C@H](C(=O)O)[C@@H](O)[C@H](O)[C@H]3O)cc2C2c3ccccc3CCC21 (stereo partly drawn) [ecopipam glucuronide, ecopipam O-β-D-glucuronide]
Ratio of SL/oral AUC [7, 15]: 0.15
Ratio of SL/oral Cmax [7, 15]: 0.24
Reduction of first pass metabolite concentration vs oral dosage form for oral systemic administration ([7]; sublingual / intraoral dosage form): 76-85% and 75-85%
Lower Cmax [8]: 15%
Lower Cmax [9]: 22%
Share of radioactivity in plasma [1, 16]: 80%
Share of radioactivity in the urine [1, 16]: 67%
Lower Cmax [10]: 23%

CN1CCc2cc(Cl)c(O)cc2[C@H]2c3ccccc3CC[C@@H]21 [ecopipam, (−)-trans-6,7,7a,8,9,13b-hexahydro-3-chloro-2-hydroxy-N-methyl-5H-benzo [d]-naphtho-[2,1-b]azepine]
Exposure-response relationship for QTc [11]: exposure-response relationship
Relationship between plasma Cmax or AUCinf and choice reaction time or visual analogue scale for sedation [11]: no relationship
10 msec increase in ΔΔQTcF interval ([12]; single dose ecopipam 179.2 mg + a general UGT inhibitor): cannot be ruled out
10 msec increase in ΔΔQTcF interval ([12]; single dose ecopipam 179.2 mg): can be ruled out
Effect on QTcF [12, 17]: increase
Predicted increase in ΔΔQTcF interval [12, 17]: up to 20.4 msec
Effect on HR, QRS, or PR intervals ([12]; single doses 179.2 mg and 537.6 mg): no effect
Increase in odds of being a responder at 12 weeks per 100 unit increase in combined steady-state AUC of ecopipam and EBS-101-40853 [13]: 6.8%
Lower Cmax and AUC∞ [9]: substantially (72-77%) lower Cmax
half-life ([1]; male, human, plasma, single oral dose 200 mg [14C]-ecopipam HCl, read-out: Geometric mean apparent terminal elimination half-life (t½) of analyte (converted)): 17.3 h
CL renal ([1]; male, human, urine, single oral dose 200 mg [14C]-ecopipam HCl, read-out: Geometric mean renal clearance (converted)): 4.73 mL/min
Share of the radiolabeled dose found as ecopipam in plasma ([1]; oral systemic administration): about 1.69%
Median time of the maximum observed concentration of analyte in plasma [1, 18]: 2.00 hours postdose
Percentage of dose excreted in urine as analyte (geometric mean) [1, 18]: < 1%
Unchanged compound in feces, share of the total administered dose [1, 18]: 6%
Increase in AUC∞ [10]: 40853 glucuronide, a ~2.1x increase
